# Test results: paper PMC9305971, “Development of [^18F]AmBF3 Tetrazine for Radiolabeling of Peptides: Preclinical Evaluation and PET Imaging of [^18F]AmBF3-PEG7-Tyr^3-Octreotide in an AR42J Pancreatic Carcinoma Model” (Bioconjugate Chemistry, 2022)
# Where two headings read alike, the source gives them in different places.
# How the values were obtained:
# [1] = Enzymatic stability in 50% human plasma-0.01 M PBS; type: in vitro ADME; settings: 50% (v/v) human plasma-0.01 M PBS, 37 °C
# Description: Lipophilicity was determined with the shake-flask method as a distribution coefficient between 0.01 M PBS and octanol. Purified radiotracer [^18F]6 (10 μL, ∼200 kBq, 1.5 nmol), [^18F]14 (20 μL, ∼260 kBq, 125 pmol), or [^18F]15 (20 μL, 144 kBq, 67 pmol) in a polypropylene tube containing 1500–2000 μL of each in a 1:1 mixture (1-octanol, 0.02 M PBS, pH 7.4) was shaken mechanically (500 rpm, 10 min) and centrifuged (1000g, 5 min), and samples from each layer (400 μL, n = 4) were measured with a γ-counter. The log D7.4 was calculated as a distribution between the two layers at pH 7.4. [^18F]6 (10 MBq, 40 nmol) diluted with 0.01 M PBS at pH 7.4 (≤1% ethanol, 5300 μL) was incubated for 180 min. At selected time points (5, 30, 60, 90, 120, 150, and 180 min), a sample (100 μL) was injected to radio-HPLC. [^18F]14 and [^18F]15 (29 MBq, 10 nmol) diluted in 2000 μL of 0.01 M PBS (≤1% ethanol) were left to incubate. A sample of [^18F]14 (100 μL) after 9 hours and [^18F]15 at selected time points between 30 and 335 min were injected into HPLC (method A). [^18F]15 (0.6 MBq, 0.134 nmol, 200 μL) formulated in ≤5% EtOH-1 × PBS was added and incubated in 2000 μL of PBS-50% human plasma at 37 °C. A 100 μL sample (at 60, 120, 180, and 240 min, n = 2) was diluted with 200 μL of cold acetonitrile and centrifuged (10,000g, 5 min). […]
# AR42J xenografts = assay: Ex vivo biodistribution of [18F]14 and [18F]15; type: in vivo, Rj:NMRI-Foxn1^nu/nu mice
# Description: (§1) [^18F]14 and [^18F]15 in ≤4% ethanol–0.01 M PBS were administered intravenously (1.2 ± 0.0 and 2.0 ± 0.1 MBq, respectively, 0.2 nmol, 150 μL) to AR42J tumor-bearing Rj:NMRI-Foxn1^nu/nu mice. At predetermined time points (t = 30, 60, 120, and 240 min), animals were euthanized with CO2 asphyxiation and cervical dislocation, and then the organs were harvested, washed with water, and blotted dry, following with weighing and γ counting from which the % ID/g in tissues was determined.
# [2] = Ex vivo biodistribution of [18F]14 and [18F]15; type: in vivo, Rj:NMRI-Foxn1^nu/nu mice; settings: mouse, iv, 0.2 nmol; for tissue to tissue ratio at 1 h: Rj:NMRI-Foxn1^nu/nu, tumor (AR42J xenograft) / blood, total radioactivity, read-out: T/blood ratio; for tissue to tissue ratio at 1 h / tissue uptake at 1 h: 60 min post injection; for tissue uptake at 1 h / tissue uptake at 2 h: i.v.; for tissue uptake at 2 h: 120 min post injection
# Description: as §1
smiles,measurement,setting,value
C[C@@H](O)[C@@H]1NC(=O)[C@H](CCCCN)NC(=O)[C@@H](Cc2c[nH]c3ccccc23)NC(=O)[C@H](Cc2ccc(O)cc2)NC(=O)[C@@H](NC(=O)[C@@H](Cc2ccccc2)NC(=O)CCOCCOCCOCCOCCON=Cc2ccc(C(=O)NCCOCCOCCOCCNC(=O)OC3CCCc4cnnc(-c5ccc(CC(=O)NCC[N+](C)(C)C[B-](F)(F)F)cc5)c4CC3)cc2)CSSC[C@@H](C(=O)N[C@H](CO)[C@@H](C)O)NC1=O (stereo partly shown) [[^18F]15],"enzymatic stability, time stable",[1],at least 180 min
same,urine,"AR42J xenografts; 60 min post injection, i.v., baseline",174.2 ± 73.4 % ID/g
same,defluorination in vivo (in words),AR42J xenografts; judged from bone uptake,no indication of defluorination
same,tissue to tissue ratio at 1 h,[2]; blocked,0.4
same,tissue to tissue ratio at 1 h,[2]; baseline,0.5
same,tissue uptake at 1 h,"[2]; baseline, read-out: blood",9.6 ± 3.3 %ID/g
same,tissue uptake at 1 h,"[2]; baseline, read-out: brain",0.3 ± 0.1 %ID/g
same,tissue uptake at 1 h,"[2]; baseline, read-out: gallbladder",9.1 ± 7 %ID/g
same,tissue uptake at 1 h,"[2]; baseline, read-out: heart",2.6 ± 0.6 %ID/g
same,tissue uptake at 1 h,"[2]; baseline, read-out: kidney",21 ± 4.5 %ID/g
same,tissue uptake at 1 h,"[2]; baseline, read-out: liver",19 ± 5.4 %ID/g
same,tissue uptake at 1 h,"[2]; baseline, read-out: lung",5.4 ± 2.3 %ID/g
same,tissue uptake at 1 h,"[2]; baseline, read-out: muscle",1.1 ± 0.9 %ID/g
same,tissue uptake at 1 h,"[2]; baseline, read-out: pancreas",1.6 ± 0.5 %ID/g
same,tissue uptake at 1 h,"[2]; baseline, read-out: skin",2.4 ± 0.9 %ID/g
same,tissue uptake at 1 h,"[2]; baseline, read-out: spleen",1.4 ± 0.3 %ID/g
same,tissue uptake at 1 h,"[2]; baseline, read-out: urine",~174 %ID/g
same,tissue uptake at 1 h,"[2]; blocked with octreotide, read-out: blood",7.2 ± 2.5 %ID/g
same,tissue uptake at 1 h,"[2]; blocked with octreotide, read-out: brain",0.2 ± 0.1 %ID/g
same,tissue uptake at 1 h,"[2]; blocked with octreotide, read-out: gallbladder",18.8 ± 10.3 %ID/g
same,tissue uptake at 1 h,"[2]; blocked with octreotide, read-out: heart",2.1 ± 0.5 %ID/g
same,tissue uptake at 1 h,"[2]; blocked with octreotide, read-out: kidney",15.9 ± 2.7 %ID/g
same,tissue uptake at 1 h,"[2]; blocked with octreotide, read-out: liver",11.8 ± 4.7 %ID/g
same,tissue uptake at 1 h,"[2]; blocked with octreotide, read-out: lung",3.6 ± 1.4 %ID/g
same,tissue uptake at 1 h,"[2]; blocked with octreotide, read-out: muscle",0.5 ± 0.1 %ID/g
same,tissue uptake at 1 h,"[2]; blocked with octreotide, read-out: pancreas",0.9 ± 0.5 %ID/g
same,tissue uptake at 1 h,"[2]; blocked with octreotide, read-out: skin",1.6 ± 0.2 %ID/g
same,tissue uptake at 1 h,"[2]; blocked with octreotide, read-out: spleen",0.9 ± 0.2 %ID/g
same,tissue uptake at 1 h,"[2]; blocked with octreotide, read-out: urine",303 ± 146 %ID/g
same,tissue uptake at 1 h,"[2]; large intestine with contents, baseline, read-out: L. I. (+cont.), large intestine",1 ± 0.7 %ID/g
same,tissue uptake at 1 h,"[2]; large intestine with contents, blocked with octreotide, read-out: L. I. (+cont.), large intestine",0.7 ± 0.3 %ID/g
same,tissue uptake at 1 h,"[2]; occipital bone, baseline, read-out: bone, occipital",0.9 ± 0.3 %ID/g
same,tissue uptake at 1 h,"[2]; occipital bone, blocked with octreotide, read-out: bone, occipital",1 ± 0.3 %ID/g
same,tissue uptake at 2 h,"[2]; occipital bone, read-out: bone, occipital",0.6 ± 0.1 %ID/g
same,tissue uptake at 1 h,"[2]; small intestine with contents, baseline, read-out: S. I. (+cont.), small intestines",3.6 ± 2.1 %ID/g
same,tissue uptake at 1 h,"[2]; small intestine with contents, blocked with octreotide, read-out: S. I. (+cont.), small intestines",5 ± 1.7 %ID/g
same,tissue uptake at 1 h,"[2]; stomach with contents, baseline, read-out: stomach (+cont.)",1.4 ± 0.8 %ID/g
same,tissue uptake at 1 h,"[2]; stomach with contents, blocked with octreotide, read-out: stomach (+cont.)",0.6 ± 0.1 %ID/g
same,tissue uptake at 1 h,"[2]; tibia bone, baseline, read-out: bone, tibia",1.1 ± 0.4 %ID/g
same,tissue uptake at 1 h,"[2]; tibia bone, blocked with octreotide, read-out: bone, tibia",0.8 ± 0.2 %ID/g
same,tissue uptake at 2 h,"[2]; tibia bone, read-out: bone, tibia",0.6 ± 0.4 %ID/g
same,tissue uptake at 1 h,"[2]; tumor, AR42J xenograft, baseline, read-out: tumor uptake",4.5 ± 1 %ID/g
same,tissue uptake at 1 h,"[2]; tumor, AR42J xenograft, blocked with octreotide, read-out: tumor uptake",3.1 ± 0.5 %ID/g
